# Reference: US20200254050A1, “STABLE COMPOSITIONS OF NEUROACTIVE PEPTIDES” (Naurex Inc., priority 2014, published 2020)
# Residues, ends and D or L forms follow the SMILES beside them.
# Test: pH stability study of GLYX-13 150 mg/mL HCl formulations (40° C., 3 weeks), HPLC assay and related substances
# Format: physicochemical
# Experimental: Column: Waters Spherisorb ODS2, 3 μm, 4.6×250 mm, Part # PSS832115
# Mobile phase A: 2.2 g/L heptanesulfonic acid, 6.7 g/L potassium dihydrogen phosphate, pH 2.5
# Mobile phase B: 70/30 Methanol/Water
# Column temperature: 40±1° C.
# Sample temperature: 4±1° C.
# Four formulations were prepared to examine dissolution of the drug based (Table 2). Each formulation was prepared at 35 mL and contained 5.25 g of GLYX-13.
# Each formulation was prepared by adding the drug to a beaker and adjusting the volume to approximately 26 mL using purified water. The pH was adjusted using 5 M HCl that was added in small increments. The solution was mixed for 10 minutes after each adjustment and mixed for 30 minutes after reaching the desired pH. The pH of the solution was checked after 30 minutes and adjusted if needed. The solution was adjusted to 35 mL using purified water when a drift in pH was no longer observed. Each formulation was filled into vials (2.5 mL/vial), sealed with a stopper, and capped. The formulations were stored at 40° C. for 3 weeks and samples were removed weekly. All weekly samples were examined for appearance, tested for pH, assay and related substances using the HPLC assay.
# Data were analyzed using the appropriate software designed for the assay and impurities HPLC method. Impurity 1 (RRT 0.43) is cyclo-proline-threonine (“diketopiperazine”). Impurity 2 (RRT 0.57) is proline-threonine amide. […]
compound,measurement,value
CC(O)C(N)C(=O)N1CCCC1C(=O)N1CCCC1C(=O)NC(C(N)=O)C(C)O (stereo not shown) [GLYX-13] (H-TPPT-NH2; configuration not given here),"rate of impurity formation at pH 7, fold greater than the rate at pH 4",approximately 6 fold
